Consider 24 compounds from patent publication US20250114338A1, “TETRAHYDRO-PYRIDO[3,4-b]INDOLE ESTROGEN RECEPTOR MODULATORS AND USES THEREOF” (Genentech, Inc., priority 2014, published 2025).

The experiment deals with ER-alpha MCF7. Nature of the experiment: ER-alpha MCF7 HCS EC50; stated as measured by in vitro cell proliferation assays of Examples 902 and 903. It counts as cell-based. The note with it: Homo sapiens, MCF7, MCF7 cells; Table 2. The essentials: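 MCF7 cells seeded 1000-2000 cells/well for 16 h, then treated with nine-point 1:2 DMSO dilution series in quadruplicate at 37 °C, 5% CO2 for 4 days. Viable cells quantified by CellTiter-Glo ATP luminescence; EC50 calculated. Controls: fulvestrant at final 100 nM, DMSO 0.2% v/v.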

`C[C@H]1Cc2c([nH]c3cc(F)ccc23)[C@H](c2c(F)cc(OC3CN(CCCF)C3)cc2F)N1CC(C)(C)F` [Example 252, (1S,3S)-1-(2,6-difluoro-4-((1-(3-fluoropropyl)azetidin-3-yl)oxy)phenyl)-7-fluoro-2-(2-fluoro-2-methylpropyl)-3-methyl-2,3,4,9-tetrahydro-1H-pyrido[3,4-b]indole]: the EC50 (in general, the concentration giving half of the maximal effect) turned out to be 50 nM.

As to `C[C@H]1Cc2c([nH]c3cccc(F)c23)[C@H](c2c(F)cc(OC3CN(CCCF)C3)cc2F)N1CC(C)(C)F` [Example 253, (1S,3S)-1-(2,6-difluoro-4-((1-(3-fluoropropyl)azetidin-3-yl)oxy)phenyl)-5-fluoro-2-(2-fluoro-2-methylpropyl)-3-methyl-2,3,4,9-tetrahydro-1H-pyrido[3,4-b]indole], the EC50 was 35 nM.

`C[C@@H]1Cc2c([nH]c3ccccc23)[C@@H](c2c(F)cc(OCCN3CC(CF)C3)cc2F)N1CC(=O)N(C)C` [Example 254, 2-[(1R,3R)-1-[2,6-difluoro-4-[2-[3-(fluoromethyl)azetidin-1-yl]ethoxy]phenyl]-3-methyl-1,3,4,9-tetrahydropyrido[3,4-b]indol-2-yl]-N,N-dimethyl-acetamide]: the concentration giving a half-maximal response (EC50) is 40 nM.

For `C[C@@H]1Cc2c([nH]c3ccccc23)[C@@H](c2c(F)cc(OCCN3CC(CF)C3)cc2F)N1CC(C)(F)CO` (stereo partly drawn) [Example 255, 3-((1R,3R)-1-(2,6-difluoro-4-(2-(3-(fluoromethyl)azetidin-1-yl)ethoxy)phenyl)-3-methyl-1,3,4,9-tetrahydro-2H-pyrido[3,4-b]indol-2-yl)-2-fluoro-2-methylpropan-1-ol], the EC50 was 0.01 nM.

Regarding `Cc1cc(OC2CN(CCCF)C2)ccc1[C@@H]1c2[nH]c3ccccc3c2C[C@@H](C)N1CC(C)(C)F` [Example 256, (1R,3R)-2-(2-fluoro-2-methyl-propyl)-1-[4-[1-(3-fluoropropyl)azetidin-3-yl]oxy-2-methyl-phenyl]-3-methyl-1,3,4,9-tetrahydropyrido[3,4-b]indole], the concentration giving a half-maximal response (EC50) is 1.69 nM.

Regarding `CC(C)(F)CN1[C@H](c2c(F)cc(OCCN3CC(CF)C3)cc2F)c2[nH]c3ccccc3c2CC1(C)C` [Example 257, (1R)-1-[2,6-difluoro-4-[2-[3-(fluoromethyl)azetidin-1-yl]ethoxy]phenyl]-2-(2-fluoro-2-methyl-propyl)-3,3-dimethyl-4,9-dihydro-1H-pyrido[3,4-b]indole], the EC50 stood at 1.09 nM.

Take `CC(C)(F)CN1[C@@H](c2c(F)cc(OCCN3CC(CF)C3)cc2F)c2[nH]c3ccccc3c2CC1(C)C` [Example 258, (S)-1-(2,6-difluoro-4-(2-(3-(fluoromethyl)azetidin-1-yl)ethoxy)phenyl)-2-(2-fluoro-2-methylpropyl)-3,3-dimethyl-2,3,4,9-tetrahydro-1H-pyrido[3,4-b]indole]: the EC50 turned out to be 31 nM.

Regarding `C[C@@H]1Cc2c([nH]c3ccccc23)[C@@H](c2c(F)cc(OC3CN(CC4CC(F)(F)C4)C3)cc2F)N1CC(C)(C)F` [Example 259, (1R,3R)-1-[4-[1-[(3,3-difluorocyclobutyl)methyl]azetidin-3-yl]oxy-2,6-difluoro-phenyl]-2-(2-fluoro-2-methyl-propyl)-3-methyl-1,3,4,9-tetrahydropyrido[3,4-b]indole], the EC50 was 0.444 nM.

Regarding `C[C@@H]1Cc2c([nH]c3c(F)cccc23)[C@@H](c2c(F)cc(OCCN3CC(CF)C3)cc2F)N1CC(C)(C)F` [Example 260, (1R,3R)-1-(2,6-difluoro-4-(2-(3-(fluoromethyl)azetidin-1-yl)ethoxy)phenyl)-8-fluoro-2-(2-fluoro-2-methylpropyl)-3-methyl-2,3,4,9-tetrahydro-1H-pyrido[3,4-b]indole], the EC50 was 0.881 nM.

As to `C[C@@H]1Cc2c([nH]c3c(F)cccc23)[C@@H](c2c(F)cc(OC3CN(CCCF)C3)cc2F)N1CC(C)(C)F` [Example 261, (1R,3R)-1-(2,6-difluoro-4-((1-(3-fluoropropyl)azetidin-3-yl)oxy)phenyl)-8-fluoro-2-(2-fluoro-2-methylpropyl)-3-methyl-2,3,4,9-tetrahydro-1H-pyrido[3,4-b]indole], the EC50 was found to be 0.28 nM.

With `C[C@H]1Cc2c([nH]c3c(F)cccc23)[C@H](c2c(F)cc(OCCN3CC(CF)C3)cc2F)N1CC(C)(C)F` [Example 262, (1S,3S)-1-(2,6-difluoro-4-(2-(3-(fluoromethyl)azetidin-1-yl)ethoxy)phenyl)-8-fluoro-2-(2-fluoro-2-methylpropyl)-3-methyl-2,3,4,9-tetrahydro-1H-pyrido[3,4-b]indole], the EC50 worked out at 26 nM.

`C[C@H](O)CN1[C@H](c2c(F)cc(OC3CN(CCCF)C3)cc2F)c2[nH]c3ccccc3c2C[C@H]1C` [Example 263, (S)-1-((1R,3R)-1-(2,6-difluoro-4-((1-(3-fluoropropyl)azetidin-3-yl)oxy)phenyl)-3-methyl-1,3,4,9-tetrahydro-2H-pyrido[3,4-b]indol-2-yl)propan-2-ol]: the EC50 came out at 0.359 nM.

Turning to `C[C@@H]1Cc2c([nH]c3ccccc23)[C@@H](c2c(F)cc(OC3CN(CCCF)C3)cc2F)N1C[C@@H](C)O` [Example 264, (R)-1-((1R,3R)-1-(2,6-difluoro-4-((1-(3-fluoropropyl)azetidin-3-yl)oxy)phenyl)-3-methyl-1,3,4,9-tetrahydro-2H-pyrido[3,4-b]indol-2-yl)propan-2-ol], the EC50 was 0.969 nM.

Regarding `C[C@@H]1Cc2c([nH]c3ccccc23)[C@@H](c2c(F)cc(OCCN3CC(CCl)C3)cc2F)N1CC(C)(C)F` [Example 265, (1R,3R)-1-[4-[2-[3-(chloromethyl)azetidin-1-yl]ethoxy]-2,6-difluoro-phenyl]-2-(2-fluoro-2-methyl-propyl)-3-methyl-1,3,4,9-tetrahydropyrido[3,4-b]indole], the EC50 turned out to be 1.7 nM.

As to `C[C@@H]1Cc2c([nH]c3ccccc23)[C@@H](c2ccc(OC3CN(CCCF)C3)c(Cl)c2)N1CC(C)(C)F` [Example 266, (1R,3R)-1-[3-chloro-4-[1-(3-fluoropropyl)azetidin-3-yl]oxy-phenyl]-2-(2-fluoro-2-methyl-propyl)-3-methyl-1,3,4,9-tetrahydropyrido[3,4-b]indole], the EC50 came out at 10 nM.

For `C[C@@H]1Cc2c([nH]c3ccccc23)[C@@H](c2ccc(OC3CN(CCCF)C3)c(F)c2)N1CC(C)(C)F` [Example 267, (1R,3R)-1-[3-fluoro-4-[1-(3-fluoropropyl)azetidin-3-yl]oxy-phenyl]-2-(2-fluoro-2-methyl-propyl)-3-methyl-1,3,4,9-tetrahydropyrido[3,4-b]indole], the concentration giving a half-maximal response (EC50) is 0.744 nM.

On to `C[C@@H]1Cc2c([nH]c3ccccc23)[C@@H](c2c(F)cc(OCCN3CC(CF)C3)cc2F)N1C[C@@H](O)CO` [Example 268, (2R)-3-[(1R,3R)-1-[2,6-difluoro-4-[2-[3-(fluoromethyl)azetidin-1-yl]ethoxy]phenyl]-3-methyl-1,3,4,9-tetrahydropyrido[3,4-b]indol-2-yl]propane-1,2-diol], for which the EC50 came out at 8 nM.

Consider `C[C@@H]1Cc2c([nH]c3ccccc23)[C@@H](c2c(F)cc(OC3CN(C[C@@H]4C[C@H]4F)C3)cc2F)N1CC(C)(C)F` [Example 269, (1R,3R)-1-[2,6-difluoro-4-[1-[[(1S,2R)-2-fluorocyclopropyl]methyl]azetidin-3-yl]oxy-phenyl]-2-(2-fluoro-2-methyl-propyl)-3-methyl-1,3,4,9-tetrahydropyrido[3,4-b]indole], for which the EC50 came out at 1 nM.

Take `C[C@H](CF)CN1[C@H](c2c(F)cc(OCCN3CC(CF)C3)cc2F)c2[nH]c3ccccc3c2C[C@H]1C` [Example 270, (1R,3R)-1-(2,6-difluoro-4-(2-(3-(fluoromethyl)azetidin-1-yl)ethoxy)phenyl)-2-((S)-3-fluoro-2-methylpropyl)-3-methyl-2,3,4,9-tetrahydro-1H-pyrido[3,4-b]indole]: the EC50 came to 0.459 nM.

Regarding `C[C@@H]1Cc2c([nH]c3ccccc23)[C@@H](c2c(F)cc(OCCN3CC(CF)C3)cc2F)N1C[C@](C)(O)CO` [Example 271, (S)-3-((1R,3R)-1-(2,6-difluoro-4-(2-(3-(fluoromethyl)azetidin-1-yl)ethoxy)phenyl)-3-methyl-1,3,4,9-tetrahydro-2H-pyrido[3,4-b]indol-2-yl)-2-methylpropane-1,2-diol], the EC50 stood at 5 nM.

For `C[C@@H]1Cc2c([nH]c3ccccc23)[C@@H](c2c(F)cc(OC3CN(CCCF)C3)cc2F)N1CC(C)(C)CF` [Example 272, (1R,3R)-1-[2,6-difluoro-4-[1-(3-fluoropropyl)azetidin-3-yl]oxy-phenyl]-2-(3-fluoro-2,2-dimethyl-propyl)-3-methyl-1,3,4,9-tetrahydropyrido[3,4-b]indole], the EC50 turned out to be 0.685 nM.

As for `C[C@@H]1Cc2c([nH]c3ccccc23)[C@@H](c2ccc(OCCN3CC(CF)C3)cc2F)N1C[C@@](C)(F)CO` [Example 273, (R)-2-fluoro-3-((1R,3R)-1-(2-fluoro-4-(2-(3-(fluoromethyl)azetidin-1-yl)ethoxy)phenyl)-3-methyl-1,3,4,9-tetrahydro-2H-pyrido[3,4-b]indol-2-yl)-2-methylpropan-1-ol], the EC50 was 0.28 nM.

As for `C[C@@H]1Cc2c([nH]c3ccccc23)[C@@H](c2ccc(OCCN3CC(CF)C3)cc2F)N1C[C@](C)(F)CO` [Example 274, (S)-2-fluoro-3-((1R,3R)-1-(2-fluoro-4-(2-(3-(fluoromethyl)azetidin-1-yl)ethoxy)phenyl)-3-methyl-1,3,4,9-tetrahydro-2H-pyrido[3,4-b]indol-2-yl)-2-methylpropan-1-ol], the EC50 was found to be 0.253 nM.

In the case of `C[C@@H]1Cc2c([nH]c3ccccc23)[C@@H](c2ccc(OCCN3CC(CF)C3)cc2)N1C[C@@](C)(F)CO` [Example 275, (R)-2-fluoro-3-((1R,3R)-1-(4-(2-(3-(fluoromethyl)azetidin-1-yl)ethoxy)phenyl)-3-methyl-1,3,4,9-tetrahydro-2H-pyrido[3,4-b]indol-2-yl)-2-methylpropan-1-ol], the EC50 stood at 0.166 nM.
